Read-outs that look alike come from different tables or passages of the source.

We go through ten molecules from US6858642B1, “Indole derivatives” (Neurim Pharmaceuticals (1991) Ltd., priority 1999, dated 2005).

A short description of data set [1]: Distribution of 125I-labelled compounds in organs of the adult male rat 1 h after ip injection. It counts as in vivo. The following applies: retention pattern 1 h after ip injection. As for the experimental part: The distribution of MLP-92 and MLP-77 in various organs of the rat was examined. 100 mcl saline containing 1×10^6 dpm ^125l-labelled compounds of the invention (labelling as described by Vakkuri et al., Acta Endocrinol., 106, 152-7, 1984) were injected (ip) to adult male rats. The rats were sacrificed 1 h after injection and various organs were dissected out and weighted. The contents of the radioactive derivatives in the rat organs (Brain, Hypothalamus, Pituitary, Eyes, Thyroid, Heart, Lungs, Kidneys. Spleen, Testis, Prostate and seminal vesicle) were determined using a gamma-counter and the results are presented as dpm/g organ wet-weight.

Data set [2] has as its system adult castrated male rats. The data set is described as follows: Androgen-dependent regrowth of ventral prostate and seminal vesicles in castrated rats, compounds given orally in drinking water. The note with it: for Dose dependence of the effect on prostate re-growth: 0.01 to 10 mg/l drinking water; for IC50: Rattus norvegicus, feed or water, read-out: IC50 on prostate re-growth; for Relative potency on testosterone-mediated prostate re-growth: comparison among compounds. In kind it is in vivo, rat. The source says:
The effects of orally administered compounds of the invention, MLP-76,77, 79 and 92, on androgen-dependent prostatal regrowth in adult castrated male rats was investigated Male rats (2.5 months old) were castrated under anesthesia and left to recover for 7 days. During this period, the average weight of the prostate decreased by approximately 75%. Beginning on day 7 after castration, the rats were given daily subcutaneous injections of either oil vehicle (control) or oil vehicle containing testosterone propionate (1 mg/kg body weight per day) for 4 days at 1 hour before lights off. […] In the morning following the last inject ion, the rats were sacrificed and the seminal vesicles and ventral prostates were removed and weighed.

The nature of data set [3]: Scavenging activity on DPPH radicals (antioxidant effect). The following applies: 10 μM addition; decrease in A517 of DPPH after 20 min at room temperature. As for the experimental part:
Radical scavenging activity was assayed in duplicates according to Blois, M. S., Nature, 1958, 181:1199. The reaction mixture contained 3 ml of 01 mM DPPH (in 95% ethanol) and 0.5 ml of the test compound. After 20 min. incubation at room temperature A517 was determined. The scavenging activity was measured as the decrease in A517 of the DPPH radical expressed as a percentage of the control value.

Setting [4] is: Table 2, 10 mg/l drinking water.
Where [5] appears, read: Table 2, testosterone + compound 10 mg/l drinking water, 4 days.
[6] abbreviates: Table 3, 0.01 mg/l drinking water.
Where [7] appears, read: Table 3, 0.1 mg/l drinking water.
Where [8] appears, read: Table 3, testosterone + compound 0.01 mg/l drinking water.
[9] abbreviates: Table 3, testosterone + compound 0.1 mg/l drinking water.
Where [10] appears, read: Table 2, testosterone propionate 1 mg/kg per day sc alone, 4 days.
[11] abbreviates: Table 3 (second group), testosterone propionate 1 mg/kg per day sc alone.

As for `COc1ccc2[nH]cc(CCNC(=O)C3CCCO3)c2c1` (stereo not drawn) [MLP-79, 5-Methoxy-3-(2-(tetrahydro-2-furamido)ethyl)indole], the “Accumulation in the prostate” value in data set [1] is recorded as “selective accumulation”. For the same molecule, in data set [2] (setting [4]), the “A = % inhibition of testosterone-stimulated growth (prostate)” value (“A = % inhibition” for short) is on record as 54% and the “B = % inhibition of testosterone-stimulated growth (seminal vesicles)” value (shortened to “B = % inhibition”) turned out to be 23%. In addition, in data set [2] (setting [5]), the “Prostate (mg/g body weight)” value came out at 0.50 ± 0.04 mg/g body weight and the “Seminal Vesicles (mg/g body weight)” value turned out to be 2.00 ± 0.39 mg/g body weight.
As usually defined, the IC50 is the concentration at which inhibition is half-maximal. With `COc1ccc2[nH]cc(CCNCC3CCCO3)c2c1` (stereo not drawn) [MLP-92, 5-Methoxy-3-(2-(tetrahydro2-furylmethylamino)ethyl)indole], in data set [1], the “Accumulation in the prostate” value is “selective accumulation”. Moreover, the “Dose dependence of the effect on prostate re-growth” value in data set [2] was “dose-dependent”. In data set [2], the 50% inhibitory concentration (IC50) is 88 nM. The “A = % inhibition” value was determined as 66% in data set [2] (setting [4]), 19% in data set [2] (setting [6]) and 62% in data set [2] (setting [7]). Moreover, the “B = % inhibition” value in data set [2] (setting [4]) turned out to be 51%; in data set [2] (setting [6]), 28%; in data set [2] (setting [7]) it was 37%. Also, the entries for the “Prostate (mg/g body weight)” value in data set [2] (setting [5]), in data set [2] (setting [8]) and in data set [2] (setting [9]) were 0.49 ± 0.04 mg/g body weight, 0.57 ± 0.04 mg/g body weight and 0.46 ± 0.1 mg/g body weight, respectively. The “Seminal Vesicles (mg/g body weight)” value in data set [2] (setting [5]) worked out at 1.54 ± 0.21 mg/g body weight; in data set [2] (setting [8]), 1.57 ± 0.25 mg/g body weight; in data set [2] (setting [9]) it was 1.45 ± 0.13 mg/g body weight. Besides, in data set [2] (Table 2), the “Relative potency on testosterone-mediated prostate re-growth” value was “more potent then MLP-79, MLP-77 and melatonin”.
On to tocopherol [Vitamin E (tocopherol)], for which, in data set [3], the “Relative ratio of scavenging activity compared with Vitamin E (tocopherol)” value (“Relative ratio of scavenging activity” below) was 1.
For `COc1ccc2[nH]cc(CCNC(C)=O)c2c1` [Melatonin, reference compound], in data set [2], the “Dose dependence of the effect on prostate re-growth” value is “dose-dependent”. Moreover, the IC50 in data set [2] (dose-dependent effect, compound in drinking water) came to 230 nM. The “A = % inhibition” value was 44% in data set [2] (setting [4]), −15% in data set [2] (setting [6]) and 31% in data set [2] (setting [7]). The “B = % inhibition” value in data set [2] (setting [4]) was found to be 30%; in data set [2] (setting [6]), 10%; in data set [2] (setting [7]), 30%. The “Prostate (mg/g body weight)” value turned out to be 0.55 ± 0.08 mg/g body weight in data set [2] (setting [5]), 0.66 ± 0.08 mg/g body weight in data set [2] (setting [8]) and 0.54 ± 0.09 mg/g body weight in data set [2] (setting [9]). Moreover, the “Seminal Vesicles (mg/g body weight)” value in data set [2] (setting [5]) was 1.88 ± 0.03 mg/g body weight; in data set [2] (setting [8]), 1.81 ± 0.28 mg/g body weight; in data set [2] (setting [9]) it was 1.55 ± 0.24 mg/g body weight. Besides, the “Effect on testosterone-mediated re-growth of the ventral prostate gland” value in data set [2] (in the presence of testosterone (Table 2)) is “decreased significantly”.
For `O=C1O[C@H]([C@@H](O)CO)C(O)=C1O` [Vitamin C (ascorbic acid), ascorbic acid], the “Relative ratio of scavenging activity” value in data set [3] came out at 1.
Turning to `COc1ccc2[nH]cc(CCNC(=O)c3ccco3)c2c1` [MLP-76, 5-Methoxy-3-(2-(2-furamido)ethyl)indole], in data set [2] (setting [4]), the “A = % inhibition” value was 66% and the “B = % inhibition” value came to 44%. Further, in data set [2] (setting [5]), the “Prostate (mg/g body weight)” value was 0.49 ± 0.09 mg/g body weight and the “Seminal Vesicles (mg/g body weight)” value turned out to be 1.82 ± 0.25 mg/g body weight. Moreover, the “Relative potency on testosterone-mediated prostate re-growth” value in data set [2] (Table 2) is “more potent then MLP-79, MLP-77 and melatonin”.
As for `COc1ccc2[nH]cc(CCNC(=O)/C=C/c3ccc(O)c(O)c3)c2c1` [caffeic acid 5-methoxytryptamide, Caffeic Acid 5-Methoxytryptamide], the “Relative ratio of scavenging activity” value in data set [3] turned out to be 3.2.
Consider `CCC(=O)O[C@H]1CC[C@H]2[C@@H]3CCC4=CC(=O)CC[C@]4(C)[C@H]3CC[C@]12C` [Testosterone, testosterone propionate, reference compound], for which, in data set [2] (setting [10]), the “Prostate (mg/g body weight)” value is listed as 0.77 ± 0.02 mg/g body weight and the “Seminal Vesicles (mg/g body weight)” value came out at 2.38 ± 0.16 mg/g body weight. Moreover, in data set [2] (setting [11]), the “Prostate (mg/g body weight)” value was found to be 0.62 ± 0.1 mg/g body weight and the “Seminal Vesicles (mg/g body weight)” value is reported as 1.95 ± 0.24 mg/g body weight.
Consider `O=C(O)C=Cc1ccc(O)c(O)c1` [Caffeic acid, 3,4-Dihydroxycinnamic acid], for which the “Relative ratio of scavenging activity” value in data set [3] turned out to be 2.8.
With `COc1ccc2[nH]cc(CCNC(=O)c3ccccc3OC(C)=O)c2c1` [MLP-77], in data set [1], the “Accumulation in the prostate” value is “selective accumulation”. Besides, in data set [2] (setting [4]), the “A = % inhibition” value turned out to be 40% and the “B = % inhibition” value is −18%. Further, in data set [2] (setting [5]), the “Prostate (mg/g body weight)” value worked out at 0.57 ± 0.05 mg/g body weight and the “Seminal Vesicles (mg/g body weight)” value worked out at 2.69 ± 0.49 mg/g body weight.
